Drawing on BindingDB's records for doi:10.1016/j.bmcl.2004.04.096 (Cv Therapeutics, 2004), this text covers Ki for 30 compounds.

The structures appear in SMILES notation. pKi: −log10 of the molar value. Bounds are passed on as bounds.

The target of assay [1] is T1, Adenosine receptor A1 (Cavia porcellus, UniProt P47745).
T1 sequence (P47745 whole entry): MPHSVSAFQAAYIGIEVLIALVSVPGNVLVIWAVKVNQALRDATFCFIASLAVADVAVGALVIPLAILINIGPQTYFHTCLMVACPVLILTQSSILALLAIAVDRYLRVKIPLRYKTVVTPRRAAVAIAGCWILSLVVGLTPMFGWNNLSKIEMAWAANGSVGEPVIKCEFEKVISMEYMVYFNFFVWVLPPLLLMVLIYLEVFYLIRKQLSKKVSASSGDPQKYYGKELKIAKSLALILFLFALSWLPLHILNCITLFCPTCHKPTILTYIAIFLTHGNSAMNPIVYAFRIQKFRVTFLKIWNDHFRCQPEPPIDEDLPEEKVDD
Put plainly: Binding affinity against adenosine A1 receptor using [3H]CPX in guinea pig DDT membrane; 354+/-113.

For assay [2], the target named is T1, Adenosine receptor A1. The experiment in a line: Binding affinity against adenosine A1 receptor using [3H]CPX in guinea pig DDT membrane; 338+/-98.
Assay [3] addresses T1, Adenosine receptor A1. The experiment in a line: Binding affinity against adenosine A1 receptor using [3H]CPX in guinea pig DDT membrane; 1666+/-556.
Assay [4] has as its target T1, Adenosine receptor A1. Put plainly: Binding affinity against adenosine A1 receptor using [3H]CPX in guinea pig DDT membrane; 166+/-75.
In assay [5] the target is T1, Adenosine receptor A1. The experiment in a line: Binding affinity against adenosine A1 receptor using [3H]CPX in guinea pig DDT membrane; 117+/-46.
The target in assay [6] is T1, Adenosine receptor A1. Put plainly: Binding affinity against adenosine A1 receptor using [3H]CPX in guinea pig DDT membrane; 1143+/-426.
The target of assay [7] is T1, Adenosine receptor A1. Put plainly: Binding affinity against adenosine A1 receptor using [3H]CPX in guinea pig DDT membrane; 1571+/-245.
Assay [8] concerns the target T1, Adenosine receptor A1. The experiment in a line: Binding affinity against adenosine A1 receptor using [3H]CPX in guinea pig DDT membrane; 506+/-111.
Assay [9] deals with T1, Adenosine receptor A1. The experiment in a line: Binding affinity against adenosine A1 receptor using [3H]CPX in guinea pig DDT membrane; 894+/-659.
Assay [10] has as its target T1, Adenosine receptor A1. The experiment in a line: Binding affinity against adenosine A1 receptor using [3H]CPX in guinea pig DDT membrane; 473+/-329.
In assay [11] the target is T1, Adenosine receptor A1. The experiment in a line: Binding affinity against adenosine A1 receptor using [3H]-CPX in guinea pig DDT membrane; 4191+/-922.
The target in assay [12] is T1, Adenosine receptor A1. The experiment in a line: Binding affinity against adenosine A1 receptor using [3H]CPX in guinea pig DDT membrane; 400+/-38.
In assay [13] the target is T1, Adenosine receptor A1. The experiment in a line: Binding affinity against adenosine A1 receptor using [3H]CPX in guinea pig DDT membrane; 343+/-137.
Assay [14] deals with T1, Adenosine receptor A1. Put plainly: Binding affinity against adenosine A1 receptor using [3H]CPX in guinea pig DDT membrane; 7292+/-3241.
In assay [15] the target is T1, Adenosine receptor A1. Put plainly: Binding affinity against adenosine A1 receptor using [3H]CPX in guinea pig DDT membrane; 503+/-262.
Assay [16] deals with T1, Adenosine receptor A1. The experiment in a line: Binding affinity against adenosine A1 receptor using [3H]CPX in guinea pig DDT membrane; 614+/-78.
Assay [17] addresses T1, Adenosine receptor A1. Put plainly: Binding affinity against adenosine A1 receptor using [3H]CPX in guinea pig DDT membrane; 287+/-125.
Assay [18] deals with T1, Adenosine receptor A1. Put plainly: Binding affinity against adenosine A1 receptor using [3H]CPX in guinea pig DDT membrane.
Assay [19] concerns the target T1, Adenosine receptor A1. The experiment in a line: Binding affinity against adenosine A1 receptor using [3H]CPX in guinea pig DDT membrane; 158+/-21.
In assay [20] the target is T1, Adenosine receptor A1. The experiment in a line: Binding affinity against adenosine A1 receptor using [3H]CPX in guinea pig DDT membrane; 604+/-241.
Assay [21] concerns the target T1, Adenosine receptor A1. Put plainly: Binding affinity against adenosine A1 receptor using [3H]CPX in guinea pig DDT membrane; 6250+/-1767.
The target of assay [22] is T1, Adenosine receptor A1. The experiment in a line: Binding affinity against adenosine A1 receptor using [3H]CPX in guinea pig DDT membrane; 1945+/-1316.
Assay [23] deals with T1, Adenosine receptor A1. Put plainly: Binding affinity against adenosine A1 receptor using [3H]CPX in guinea pig DDT membrane; 5855+/-1208.
The target of assay [24] is T1, Adenosine receptor A1. The experiment in a line: Binding affinity against adenosine A1 receptor using [3H]CPX in guinea pig DDT membrane; 913+/-517.
Assay [25] addresses T1, Adenosine receptor A1. The experiment in a line: Binding affinity against adenosine A1 receptor using [3H]CPX in guinea pig DDT membrane; 5497+/-180.
The target of assay [26] is T1, Adenosine receptor A1. The experiment in a line: Binding affinity against adenosine A1 receptor using [3H]CPX in guinea pig DDT membrane; 1773+/-209.

In general, pKi refers to the Ki on a negative log10 scale, so that one unit is a factor of ten. A lower pKi goes with a high Ki. For the compound `COc1ccc2sc(SC[C@H]3OC(n4cnc5c(NC6CCCC6)ncnc54)[C@H](O)[C@@H]3O)nc2c1` (stereo partly specified), the pKi in [1] is 6.45. The compound `O[C@@H]1[C@@H](CSc2ccccc2Cl)OC(n2cnc3c(NC4CCOC4)ncnc32)[C@@H]1O` (stereo partly specified) showed a negative logarithm of the Ki (pKi) in assay [2] of 6.47. Consider `COc1ccc2nc(SC[C@H]3OC(n4cnc5c(NC6CCCC6)ncnc54)[C@H](O)[C@@H]3O)sc2c1` (stereo partly specified), for which the pKi in assay [3] is 5.78. For `O[C@@H]1[C@@H](CSc2nccs2)OC(n2cnc3c(NC4CCCC4)ncnc32)[C@@H]1O` (stereo partly specified), the pKi in [4] was 6.78.

As to `O[C@@H]1[C@@H](COc2ccccc2F)OC(n2cnc3c(NC4CCOC4)ncnc32)[C@@H]1O` (stereo partly specified), in assay [5], the pKi is 6.93. The compound `Cc1ccccc1SC[C@H]1OC(n2cnc3c(NC4CCOC4)ncnc32)[C@H](O)[C@@H]1O` (stereo partly specified) showed a pKi in assay [6] of 5.94.

Regarding `O[C@@H]1[C@@H](CSc2cccc(F)c2)OC(n2cnc3c(NC4CCOC4)ncnc32)[C@@H]1O` (stereo partly specified), the pKi in assay [7] is 5.80. With `O[C@@H]1[C@H](O)[C@@H](CSc2ccccc2F)O[C@H]1n1cnc2c(NC3CCOC3)ncnc21` (stereo partly drawn) [N6-Tetrahydrofuranyl-9H-[5-deoxy-5-(2-fluorophenylthio)-beta-D-ribofuranosyl]adenine], in assay [8], the pKi is 6.30.

As to `O[C@@H]1[C@@H](CSc2ccccn2)OC(n2cnc3c(NC4CCOC4)ncnc32)[C@@H]1O` (stereo partly specified), the pKi in assay [9] was 6.05. Regarding `O[C@@H]1[C@@H](COc2ccccc2Cl)OC(n2cnc3c(NC4CCOC4)ncnc32)[C@@H]1O` (stereo partly specified), the pKi in assay [10] is 6.33. Compound `Cn1ccnc1SC[C@H]1OC(n2cnc3c(NC4CCOC4)ncnc32)[C@H](O)[C@@H]1O` (stereo partly specified) gave a pKi in assay [11] of 5.38.

Consider `O[C@@H]1[C@@H](CSc2nc3ccccc3s2)OC(n2cnc3c(NC4CCOC4)ncnc32)[C@@H]1O` (stereo partly specified), for which the pKi in assay [12] was 6.40. In assay [13], `O[C@@H]1[C@@H](COc2ccc(F)cc2)OC(n2cnc3c(NC4CCOC4)ncnc32)[C@@H]1O` (stereo partly specified) had a negative logarithm of the Ki (pKi) of 6.46. `Cc1cccc(Cl)c1SC[C@H]1OC(n2cnc3c(NC4CCOC4)ncnc32)[C@H](O)[C@@H]1O` (stereo partly specified) had a pKi in [14] of 5.14.

In assay [15], `Cc1ccccc1OC[C@H]1OC(n2cnc3c(NC4CCOC4)ncnc32)[C@H](O)[C@@H]1O` (stereo partly specified) gave a negative-log Ki (pKi) of 6.30. `O[C@@H]1[C@@H](CSc2c(Cl)cccc2Cl)OC(n2cnc3c(NC4CCOC4)ncnc32)[C@@H]1O` (stereo partly specified) gave a pKi in [16] of 6.21. With `O[C@@H]1[C@@H](CSc2ccccc2F)OC(n2cnc3c(NC4CCCC4)ncnc32)[C@@H]1O` (stereo partly specified), the pKi in [17] is 6.54.

For `Cn1ccnc1SC[C@H]1OC(n2cnc3c(NC4CCCC4)ncnc32)[C@H](O)[C@@H]1O` (stereo partly specified), the negative logarithm of the Ki (pKi) in assay [18] is 5.87. For the compound `O[C@@H]1[C@@H](CSc2nccs2)OC(n2cnc3c(NC4CCOC4)ncnc32)[C@@H]1O` (stereo partly specified), the pKi in [19] was 6.80. Take `O[C@@H]1[C@@H](COc2cccc(F)c2)OC(n2cnc3c(NC4CCOC4)ncnc32)[C@@H]1O` (stereo partly specified): in assay [20], the pKi is 6.22.

In the case of `O[C@@H]1[C@@H](CSc2ccccc2C(F)(F)F)OC(n2cnc3c(NC4CCOC4)ncnc32)[C@@H]1O` (stereo partly specified), in assay [21], the pKi is 5.20. On to `O[C@@H]1[C@@H](COCc2ccccc2)OC(n2cnc3c(NC4CCOC4)ncnc32)[C@@H]1O` (stereo partly specified), for which the pKi in assay [18] is 6.78.

On to `O[C@@H]1[C@@H](CSc2nc3ccc(Cl)cc3o2)OC(n2cnc3c(NC4CCOC4)ncnc32)[C@@H]1O` (stereo partly specified), for which, in assay [22], the pKi is 5.71. In [18], `Cc1cc(COC[C@H]2OC(n3cnc4c(NC5CCOC5)ncnc43)[C@H](O)[C@@H]2O)no1` (stereo partly specified) gave a pKi of 6.72. On to `Cc1cccc(C)c1SC[C@H]1OC(n2cnc3c(NC4CCOC4)ncnc32)[C@H](O)[C@@H]1O` (stereo partly specified), for which the pKi in assay [23] was 5.23. Compound `O[C@@H]1[C@@H](CSc2ncccn2)OC(n2cnc3c(NC4CCOC4)ncnc32)[C@@H]1O` (stereo partly specified) had a pKi in assay [24] of 6.04. For `O[C@@H]1[C@H](O)[C@@H](CSc2ccc(F)cc2F)O[C@H]1n1cnc2c(NC3CCOC3)ncnc21` (stereo partly specified), the pKi in assay [25] was 5.26; in assay [18], 6.31. The compound `Cc1csc(SC[C@H]2OC(n3cnc4c(NC5CCOC5)ncnc43)[C@H](O)[C@@H]2O)n1` (stereo partly specified) had a pKi in [18] of less than 5.30.

Regarding `O[C@@H]1[C@@H](COc2ccccc2F)OC(n2cnc3c(NC4CCCC4)ncnc32)[C@@H]1O` (stereo partly specified), the pKi in assay [18] is 5.36. In [26], `O[C@@H]1[C@@H](CSc2nc3ccccc3s2)OC(n2cnc3c(NC4CCCC4)ncnc32)[C@@H]1O` (stereo partly specified) had a pKi of 5.75.
